The test system of series [1] is barrier function of the skin. Nature of the series: Transepidermal water loss (TEWL) measurement on skin biopsies in inserts. It is filed as cell-based. The note with it: biopsy edges sealed with Loctite super glue. The source says: The purpose of this example is to incorporate sealed sensors into an insert. Sealing the biopsy edge using Loctite super glue, as shown in the photograph in FIG. 18A and the histology stain image in FIG. 18B, allowed the measurement of changes in barrier function with sensitivity, as well as preventing leakage of topically-applied substances into the dermis through the edge of the biopsy as well as allowing for the precise measurement of changes in the barrier function of the skin using clinical sensors.
FIGS. 19A-19B illustrate measurements of transepidermal water loss (TEWL) in model skin that were either not sealed or sealed using Loctite super glue, respectively. TEWL measurements were taken using a Courage+Khazaka Multi Probe Adapter MPA 10. […] FIG. 20 show a comparison in TEWL measurements of the effects of a barrier enhancer (Niacinamide) and a barrier disrupter (SDS) on skin sealed with Loctite super glue over a six-day period.

For series [2], the system named is normal skin tissue in an insert. Put plainly: Skin irritation: histopathological scoring of H&E stained skin tissue. Format: cell-based. Conditions: 2% for 24 hours, topical; compared to the control group. As to the method: (§1) The purpose of this example is to test and replicate dynamic changes in skin across various types of clinically relevant stimuli, including skin irritations, intradermal injection. cosmetic product treatment, and antioxidant defense. Approximations of skin irritation evaluated in this manner include topical chemical treatment 261, burn treatment 262, and UV treatment 263, as illustrated in FIGS. 26A-26C, respectively. Chemical irritation was approximated through application of 2% SDS for 24 hours, burns were approximated through 100° C, contact with a heated metal rod for 45 seconds, and UV irritation was approximated via UVA and UV application for 30 minutes. […] Skin tissues were evaluated and scored using the parameters in Table 9 as provided above. Include protocol, histological parameters, histology staining and scoring results, immune and inflammatory responses, antioxidant defense assessment, etc.
FIGS. 28A-28D provide H&E stained tissues for a first selection of untreated. chemical-treated, burn-treated, and UV-treated skin tissue samples, respectively. A pathological analysis of the extent of damage was undertaken and is shown in FIGS. 29A-29C to evaluate epidermal damage, eczematous epidermis, and epidermis thickness, respectively, after application of damage stimuli. […] UV irradiation caused epidermal thinning compared to the control group.

Series [3] relates to skin tissues. Nature of the series: Skin irritation: collagen deposition by histopathological scoring (Masson's Trichrome). It is filed as cell-based. The note with it: 2% for 24 hours; compared to the untreated group. How it is done: as §1
A second selection of samples were cultured and subjected to irritating stimuli, whereby a chemical stimulus group was subjected to 2% SDS for 24 hours, a burn group was subjected to 100° C, contact for 90 seconds, and a UV irritation group was subjected to UV-B for 30 minutes. FIGS. 30A-30D illustrate insert images after staining with Masson's Trichrome for untreated, chemical-treated, burn-treated, and UV-treated skin tissues, respectively. […]

The test system of series [4] is skin tissues. Put plainly: Skin irritation: lactate dehydrogenase (LDH) release. It is filed as cell-based. The note with it: 2% SDS for 24 hours; compared to untreated samples. How it is done: A second selection of samples were cultured and subjected to irritating stimuli, whereby a chemical stimulus group was subjected to 2% SDS for 24 hours, a burn group was subjected to 100° C, contact for 90 seconds, and a UV irritation group was subjected to UV-B for 30 minutes. FIGS. 30A-30D illustrate insert images after staining with Masson's Trichrome for untreated, chemical-treated, burn-treated, and UV-treated skin tissues, respectively. FIG. 31A provides an analysis of collagen deposition using histopathological scoring to determine the effects of damage stimuli on each group. As a result of this analysis, both burn and UV irradiation groups were discovered to have reduced collagen deposition compared to the untreated group. […] FIG. 31B provides an analysis of lactate dehydrogenase (LDH) release, which is widely used as a marker for assessing cell death and toxicity. The analysis indicated a significant increase of LDH release from all treatment conditions compared to untreated samples.

In the next series the test system is skin tissue. Nature of the series: Tissue longevity analysis: media conditions judged by histology (epidermis and dermis structure) and culture survival. Format: cell-based, human. The source says:
Table 5 provides a plurality of media mixtures applied to skin samples to assess the effects of various testing conditions on the skin tissue.

For `CCCCCCCCCCCCOS(=O)(=O)[O-].[Na+]` [SDS], the “barrier function by TEWL” value in series [1] is “reduction in the barrier function”. Moreover, in series [2], the eczematous epidermis result is “moderate eczematous (atopic) epidermis”, the epidermal damage result is listed as “significant epidermal as evidenced by widespread dyskeratotic cells” and the thickness of epidermis result was “pathological epidermal thickening (acanthosis)”. Further, the collagen deposition result in the series with skin tissues [3] is “No significant change in collagen deposition”. Also, the LDH release entry in the series with skin tissues [4] is reported as “highest LDH release”.
Take `[Ca+2].[Cl-].[Cl-]` [calcium chloride]: the “beneficial effect on skin samples” value with skin tissue (0.1 mM on the surface of skin samples) is given as “neither testing condition was observed to have any beneficial effect”; in the series with skin tissue (0.5 mM and 1 mM in media), “neither testing condition was observed to have any beneficial effect”.

(Values after patent US20260002109A1, “SYSTEMS AND PROCESSES FOR SKIN TISSUE GROWTH AND ANALYSIS” (Outer Biosciences, Inc., priority 2023, published 2026).)
